Details of series [1]: key: very good: 0.1 to 3.0; good: 3.01 to 50; average: 50.1 to 1000; poor: >1000; none: NEGATIVE
The settings on record: reference products of the interpretation scale; cited from earlier work.

The test system of series [2] is B16-F10 cells. Briefly: Assay of melanin in B16-F10 cells (colorimetric, α-MSH stimulated). The format is cell-based, murine. To be noted: Mus musculus, B16-F10, 72 h, 0.1 μM α-MSH, negative = inhibition, positive = stimulation, read-out: Melanin synthesis on B16. On the procedure:
It is a test to measure the synthesis of melanin by colorimetric assay on a murine melanoma cell line: line B16-F10. With this test it is possible to evaluate the depigmenting or propigmenting property of active ingredients.
The B16-F10 cells were seeded in 96-well plates in DMEM medium supplemented with FCS (foetal calf serum), and incubated 24 h at 37° C., 5% CO2. The cells were stimulated with 0.1 μM α-MSH (to stimulate melanin synthesis, the observed stimulation being about 150%) and treated 72 h with the active ingredients to be assayed. Each concentration of active ingredient was assayed at least in triplicate. Total melanin and intracellular melanin dissolved in lysis buffer were assayed by absorbance read-off at 405 nm. The total proteins were assayed in the lysate and the results expressed in mg melanin/mg proteins. Percentage activity was calculated as follows: […]
A negative value indicates inhibition of the melanin synthesis and translates depigmenting activity of the compound, whereas a positive value indicates induced melanin synthesis and translates a propigmenting property of the molecule.
• B16-F10 cell lines between P10 and P20 (murine melanocytes) (ATCC, CRL-6475); • reagents: DMEM without Phenol Red (GIBCOBRL, 118800-028), 200 mM glutamax-I supplement (GIBCOBRL, 35050-038), glucose (SIGMA, G7021), PBS (GIBCOBRL, 14190-094), foetal calf serum (Invitrogen, 10270-098), trypsin-EDTA (GIBCOBRL, 25300-054), NaOH (Sigma, S8045-500G), DMSO (Sigma, 471267-11), Nle, Phe-Melanocyte Stimulating Hormone (Sigma, M-8764), melanin (Sigma, M-0418), BCA-COPPER (SIGMA, B9643 and C2284), BSA (SIGMA, P0914) B) Test to Study Anti-Oxidizing Capability Using Chemiluminescence (Photochem Analytic Jena) Principle

A short description of series [3]: Test to study anti-oxidizing capability using chemiluminescence (Photochem Analytic Jena). The format is biochemical. To be noted: quantity of sample needed for activity equivalent to 1 μg Trolox, superoxide anion trapping. As for the experimental part:
This test is used to determine the anti-oxidizing capability of the molecules. It is a method which generates free radicals via photochemical signal. The intensity of oxidation is 1000 times higher than obtained under normal conditions.
Detection is performed using chemiluminescence. This allows evaluation of water-soluble and liposoluble antioxidant molecules or extracts
The results are expressed in equivalent quantity of vitamin C or Trolox (6-hydroxy-2,5,7,8-tetramethylchroman-2-carboxylic acid) respectively. Sensitivity is in the order of one nanomole.
The anti-oxidizing activity studied in this test represents the capability of specifically trapping superoxide anions by chemiluminescence.
The quantified results are expressed in Trolox equivalent (standard) or in “μg of product per 1 μg of Trolox”. This means that a quantity x of sample is needed to obtain activity equivalent to the activity detected with 1 μg of standard. It is the antioxidizing power in relation to a reference; this avoids having to take into account the concentrations tested.
The superoxide radical: O2^∘^− is generated by photochemical reaction: L+hv(UV)+O2→L*O2→L^∘^++O2^∘^− • L*: luminol in the excited state L^∘+: luminol radical Signal Detection
Part of the superoxide anions are inhibited by the antioxidants. The remaining free radicals are quantified by chemiluminescence. L^∘^++O2^∘^−→N2+AP*^2−→AP^2−+hv (luminescence)
AP*^2−: aminophthalate in the excited state

A short description of series [4]: Log P (octanol/water partition coefficient). The format is physicochemical. The source says: Log P, also called Log Kow, is a measurement of the differential solubility of chemical compounds in two solvents (octanol/water partition coefficient).
Log P is equal to the logarithm of the ratio of the concentrations of the examined substance in octanol and in water. Log P=Log(Coct/Cwater). With this value it is possible to assess the hydrophilic or hydrophobic (lipophilic) nature of a molecule. If Log P is positive and very high, this means that the molecule under consideration is much more soluble in octanol than in water, which reflects its lipophilic nature, and conversely. A value of Log P=0 means that the molecule is distributed equally between the two phases and Coct=Cwater (C. Hansch, J. F. Quinlan, G. L. Lawrence, Linear free energy relationship between partition coefficients and the aqueous solubility of organic liquids, J. Org. Chem., 33 (1968), 347-350; C. Hansch, A. Leo, Exploring QSAR—Fundamentals and Applications in Chemistry and Biology, American Chemical Society, Washington, 1995; J. Sangster, Octanol—Water Partition Coefficients: Fundamentals and Physical Chemistry, Wiley, Chichester, 1997; W. Jorgensen, E. Duffy, Advanced Drug Delivery Reviews, (54), 2002, 355-366).

By logP is commonly meant the decadic logarithm of the partition coefficient of the neutral form, usually between octanol and water.

Values joined by “and” are separate entries in the source; they are usually repeats but may differ in a detail not shown here. Equal entries are not always repeated. Some results are limits rather than exact numbers.

As to `Cc1cc(C(C)(C)C)c(O)c(C(C)(C)C)c1` [BHT], the “Activity (scale for interpretation of results)” value (“Activity” below) in series [1] is “good (3.01 to 50)”. For the molecule `CCCCCCCCCCN1C2=C(C(=O)CC(C)(C)C2)C(c2ccc(O)c(O)c2)C2=C1CC(C)(C)CC2=O` [Example 3, 10-decyl-9-(3,4-dihydroxyphenyl)-3,3,6,6-tetramethyl-3,4,6,7,9,10-hexahydroacridine-1,8(2H,5H)-dione], the activation at 20 µM in series [2] is -46%. In addition, the “μg sample per 1 μg of Trolox” value in series [3] is recorded as 0.015 μg sample per 1 μg of Trolox. Besides, the logP in series [4] is 5.21. With `CCCCCCCCCCCCN1C2=C(C(=O)CC(C)(C)C2)C(c2cc(C(C)(C)C)c(O)c(C(C)(C)C)c2)C2=C1CC(C)(C)CC2=O` [Example 8, 10-dodecyl-9-(3,5-di-tert-butyl-4-hydroxyphenyl)-3,3,6,6-tetramethyl-3,4,6,7,9,10-hexahydroacridine-1,8(2H,5H)-dione], the activation at 20 µM in series [2] is -46%. Further, the “μg sample per 1 μg of Trolox” value in series [3] is 62 μg sample per 1 μg of Trolox and 61.9 μg sample per 1 μg of Trolox. In series [4], this molecule displayed a logP of over 5. As to `CCCCCCCCCCCCN1C2=C(C(=O)CC(C)(C)C2)C(c2ccc(O)c(OC)c2)C2=C1CC(C)(C)CC2=O` [Example 1, 10-dodecyl-9-(4-hydroxy-3-methoxyphenyl)-3,3,6,6-tetramethyl-3,4,6,7,9,10-hexahydroacridine-1,8(2H,5H)-dione], the activation at 2 µM in series [2] (at 2 μM) was -40%. In addition, the “μg sample per 1 μg of Trolox” value in series [3] was 2.45 μg sample per 1 μg of Trolox. This molecule also gave a logP in series [4] of 6.3. For the molecule `CCCCCCCCCCN1C2=C(C(=O)CC(C)(C)C2)C(c2cc(OC)c(O)c(OC)c2)C2=C1CC(C)(C)CC2=O` [Example 7, 10-decyl-9-(4-hydroxy-3,5-dimethoxyphenyl)-3,3,6,6-tetramethyl-3,4,6,7,9,10-hexahydroacridine-1,8(2H,5H)-dione], the activation at 10 µM in series [2] was -56%. Further, in series [3], the “μg sample per 1 μg of Trolox” value was 0.81 μg sample per 1 μg of Trolox. The molecule further came in with a logP in series [4] of 5.34. As to `N[C@@H](CS)C(=O)O` [Cystein], the “Activity” value in series [1] is given as “average (50.1 to 1000)”.

Regarding `CCCCCCCCCCCCN1C2=C(C(=O)CC(C(C)C)C2)C(c2ccc(O)c(OC)c2)C2=C1CC(C(C)C)CC2=O` (stereo not shown) [Example 9, 10-dodecyl-9-(4-hydroxy-3-methoxyphenyl)-3,6-diisopropyl-3,4,6,7,9,10-hexahydroacridine-1,8(2H,5H)-dione], the activation at 10 µM in series [2] was -49%. For the same molecule, the “μg sample per 1 μg of Trolox” value in series [3] is 1.57 μg sample per 1 μg of Trolox. This molecule also displayed a logP in series [4] of over 5.

Consider `O=C(O)CCCC[C@@H]1CCSS1` (racemic) [Lipoic acid], for which the “Activity” value in series [1] is “none”. `CCCCCCCCCCN1C2=C(C(=O)CC(c3ccccc3)C2)C(c2ccc(O)c(O)c2)C2=C1CC(c1ccccc1)CC2=O` (stereo not shown) [Example 6, 10-decyl-9-(3,4-dihydroxyphenyl)-3,6-diphenyl-3,4,6,7,9,10-hexahydroacridine-1,8(2H,5H)-dione]: the “μg sample per 1 μg of Trolox” value in series [3] is 0.04 μg sample per 1 μg of Trolox. Turning to Albumin, in series [1], the “Activity” value is listed as “poor (>1000)”. `O=C1O[C@H]([C@@H](O)CO)C(O)=C1O` [Vitamin C]: the “Activity” value in series [1] was “very good (0.1 to 3.0)”. With `CN1C2=C(C(=O)CC(c3ccccc3)C2)C(c2ccc(O)c(O)c2)C2=C1CC(c1ccccc1)CC2=O` (stereo not shown) [Example 5, 9-(3,4-dihydroxyphenyl)-10-methyl-3,6-diphenyl-3,4,6,7,9,10-hexahydroacridine-1,8(2H,5H)-dione], in series [3], the “μg sample per 1 μg of Trolox” value was 0.05 μg sample per 1 μg of Trolox.

Values taken from patent US9493421B2, “Acridinedione derivatives for treating pigmentation disorders and ageing of the skin” (PIERRE FABRE DERMO-COSMETIQUE, priority 2011, dated 2016).
